Like-named read-outs stand apart in the source and are kept apart here.
Tests used:
human PPAR γ 2 [1] = target: T1, human PPAR γ 2 (Homo sapiens, UniProt P37231); experiment: PPAR γ transcriptional activity, luciferase reporter, test compound alone; type: cell-based; details: concentration indicating Emax/2, MG63 cells transfected with pSG5-hPPARg and pGV-P2-PPRE, 24 hr
T1 construct: expressed in transfected cells; host or cells: human osteosarcoma MG63, transiently co-transfected with pSG5-hPPARg and the reporter pGV-P2-PPRE
T1 sequence (P37231 1-505): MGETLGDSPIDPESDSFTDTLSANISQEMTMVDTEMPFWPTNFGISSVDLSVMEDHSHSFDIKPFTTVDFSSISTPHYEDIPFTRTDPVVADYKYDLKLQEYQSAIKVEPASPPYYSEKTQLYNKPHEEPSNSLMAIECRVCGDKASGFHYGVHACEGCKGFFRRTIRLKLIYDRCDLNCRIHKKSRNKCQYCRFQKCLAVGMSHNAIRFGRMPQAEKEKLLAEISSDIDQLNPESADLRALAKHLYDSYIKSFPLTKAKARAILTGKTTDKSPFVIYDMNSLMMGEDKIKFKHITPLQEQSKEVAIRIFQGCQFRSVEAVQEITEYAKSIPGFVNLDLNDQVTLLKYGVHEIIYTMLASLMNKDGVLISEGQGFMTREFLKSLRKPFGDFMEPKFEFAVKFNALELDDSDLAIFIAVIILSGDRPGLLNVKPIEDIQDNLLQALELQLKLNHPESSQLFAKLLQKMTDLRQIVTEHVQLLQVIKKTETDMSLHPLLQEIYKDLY
Procedure: The primers of the polymerase chain reaction (hereinafter “PCR”) were designed according to the gene sequence of human PPAR γ 2 (GenBANK accession No. D83233). In order to insert the genes into the BamHI site of the plasmid pSG5 ([…] CLONING SYSTEMS), Bgl II sites were added upstream and downstream of the genes encoding human PPAR γ 2 protein. For this, 2 kinds of polynucleotides shown in the sequence numbers 1 and 2 in the sequence table described below (hereinafter “S1” and “AS1”, respectively) were used as PCR primers.
(§1) In order to determine transcriptional activity via PPAR γ, 2 kinds of polynucleotides represented in sequence numbers 3 and 4 in the sequence table described below (hereinafter “S2” and “AS2”, respectively) were used for construction of the reporter plasmid having PPAR responsive element. The DNA fragment inserted was designed based on the gene sequence in the promoter region of rat acylCo-A oxidase (J. D. Tugwood, EMBO J., 11 (2), pp433-439 (1992)). For insertion of the DNA fragment into the reporter plasmid pGV-P2 (TOYO INK MFG CO., LTD), a NheI site and an XhoI site were added to the S2 and AS2, respectively.
(§2) Using cDNA library (Clontech) derived from human adipose tissue as a template, DNA oligomers S1 and AS1 that were synthesized in the procedure 1 as primers and Ex-Taq™ (TAKARA BIO INC.) as a thermostable DNA polymerase-PCR was carried out. As a result of the PCR, the c.a. 1500 bps DNA fragments were amplified. Each cycle consisted of incubation at 94° C. for 1 min for denaturation of the template, then at 55° C. for 30 sec for annealing of DNA oligomers the PCR primer, and then at 72° C. for 30 sec for extension of the chain. The obtained DNA fragments with approximately 1500 base pairs were digested at the Bgl II sites and were inserted into BamHI sites of pSG5. Thus a human PPAR γ expression plasmid named pSG5-hPPAR g was obtained. The nucleotide sequence of the inserted DNA fragment was confirmed to be identical sequence to the human PPAR γ 2 reported by the dideoxy method.
(§3) Vector pGV-P2 digestion products was prepared by digestion using the restriction enzymes, NheI and XhoI, and purified by 1.0% agarose-gel electrophoresis. The DNA oligomers, S2 and AS2 obtained in Procedure 2, were mixed together and were incubated in a hot bath at 94° C. for 1 min. After the annealing was partially broken, they were further incubated at 25° C. for 1 hr. Thus double-stranded DNA with annealing of S2 and AS2 was formed. Then, the terminus of the double-stranded DNA with annealing of S2 and AS2 was phosphorylated with DNA polynucleotide kinase (TOYOBO CO., LTD). After that, it was ligated to the pGV-P2 digestion products which were prepared previously using the NheI site and XhoI site. Thus the reporter plasmid pGV-P2-PPRE was obtained.
(§4) Using the plasmid obtained by the procedures 3 and 4, transformation of Escherichia coli HB-101 strain was carried out by conventional methods. HB-101 strain having the plasmid was incubated in L-broth medium (containing 10 g of trypton (Difco), 5 g of yeast extract (Difco), 5 g of sodium chloride in 1 L of aqueous solution) containing 100 μg/ml of ampicillin at 37° C. for 17 hrs. Then, each plasmid was purified by the alkaline-SDS method and employed for the gene transfection to mammalian cells. After mixing the pSG5-hPPARg, PGV-P2-PPRE and LipofectAMINE reagent (GIBCO BRL), the human osteosarcoma MG63 was transiently transfected. Then the cells were recovered. The recovered cells were plated on a 96-well plate so as to be 30,000 cells/well and cultured in a CO2 incubator (NAPCO) at 37° C. for 24 hr under the condition of 5% CO2, 95%-RH.
Various concentrations of the test compound alone were added to culturing medium of the cells prepared in the Procedure 5. After 24 hr of culturing, LT2.0 (TOYO INK MFG CO., LTD), a luciferase substrate, was added to the medium free culture plate. […]

human PPAR γ 2 [2] = target: T1, human PPAR γ 2; experiment: Inhibitory activity against PPAR γ transcription in the presence of agonist compound A, luciferase reporter; type: cell-based; details: in the presence of 10 nM compound A (agonist); MG63 cells transfected with pSG5-hPPARg and pGV-P2-PPRE; 24 hr
From the text: The primers of the polymerase chain reaction (hereinafter “PCR”) were designed according to the gene sequence of human PPAR γ 2 (GenBANK accession No. D83233). […] For this, 2 kinds of polynucleotides shown in the sequence numbers 1 and 2 in the sequence table described below (hereinafter “S1” and “AS1”, respectively) were used as PCR primers.
as §1
as §2, with “As a result of the PCR, the c.a. 1500 bps DNA fragments were amplified.” left out, “obtained.” for “obtained. The nucleotide sequence of the inserted DNA fragment was confirmed to be identical sequence to the human PPAR γ 2 reported by the dideoxy method.”
as §3, §4
Ten (10) nM of the following compound A (although compound A is described here as a representative compound, the compound is not limited to compound A, if the compound exerts a PPAR r agonistic activity) and various concentrations of the test compound were added to culturing medium of the cells prepared in the Procedure 5.

[3] = tested on: human colon cancer cells COL-2-JCK; experiment: Inhibition of colony forming activity in human colon cancer cells; type: cell-based; details: Homo sapiens, 240 h; 1 μM test compound; 10 days; sum of colony areas vs control; read-out: Inhibition Rate (%) against the colony forming activity
Procedure: For the medium to culture the human colon cancer cells, D-MEM/F-12 medium containing inactivated bovine fetal serum at a concentration of 10% (GIBCO) was used. The human colon cancer cells COL-2-JCK (purchased from Institute for Experimental Animals) grown in mass formation in a plastic dish for the cell culture with an inner diameter of 100 mm were stripped off from the dish by using EDTA (ethylenediaminetetraacetic acid) and 0.05% trypsin solution. Then, a cell dilution solution was prepared at a concentration of 100 cells/mL solution which was diluted with the medium (D-MEM/F-12).
Three (3) mL of the cell solution were inoculated in each well of a 6-well plastic plate (300 cells/well). The test compound that was dissolved in DMSO solution so as to be a final concentration of 1 μM of the test compound and that of DMSO solution of 0.1% was added to each well. DMSO solution alone was added into the well for the control so as to be a final concentration of 0.1%.
The cells in each well were cultured for 10 days at 37° C. in the presence of 5% CO2. After the culturing was finalised, each well was washed once with Dulbecco-phosphate-buffer-saline solution (bivalent anion). Then, 1.5 ml of neutral buffered formalin solution containing 0.02% crystal violet was added to each well and the plate was kept stationary for 5 min for fixation and staining the cells. After fixation and staining, the cells were washed with water and were air-dried. Then the sum of the colony area (mm^2) of the stained cancer cells was calculated by using an image analyzer PCA-11 (SystemScience). From the calculated values, the inhibition rate (%) of the compound against the colony forming activity was obtained based on the following equation.
Inhibition Rate (%) against the colony forming activity=(1−A/B)×100
A: Sum of Colony Areas in the Group Treated with 1 μM of the Test Compound
B: Sum of Colony Areas in the Control Group

Rat white adipocytes = experiment: Stimulation of differentiation of the adipocytes (Oil Red O); type: cell-based; details: Rattus norvegicus, Adipocyte, 120 h, 100 nM test compound; 5 days; Oil Red O ABS550; control = 100%, blank = 0%; Table 7; read-out: Rate of Differentiation (%)
In short: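 Oil Red O lipid staining, absorbance 550 nm after DMSO extraction, quantified differentiation of rat white adipocytes exposed 5 days to compound (final 100 nM, 0.1% DMSO) in differentiation medium. Percent differentiation normalised between cell-free blank (0%) and DMSO control (100%).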

Balb/c mice = experiment: Prevention of concanavalin A liver injury; type: in vivo, mouse; details: Mus musculus, po, 24 h, 10 mg/mL suspension at 10 mL/kg, 30 min prior to Con A, plasma 24 hr after Con A
Procedure: Five (5) Balb/c mice (female, 6-8 weeks old) per group were used. Liver injury was elicited in the mouse by injection of concanavalin A (Con A) dissolved in saline (2.0 mg/mL) into the tail vein at a volume of 10 mL/kg of the solution (Hepatology, 21, 190-198 (1995)).
The test compounds were suspended in distilled water containing 0.5% CMC, at a concentration of 10 mg/mL. This suspended solution was orally administered to the mouse at a volume of 10 mL/kg, 30 min prior to injection of Con A (group A).
Apart from this group, distilled water containing 0.5% CMC powder, instead of the test compound, was orally administered in the second group of mice (group B). In the 3rd group, nothing was given to the mice (group C).
Twenty four (24) hr after the injection of Con A, blood was collected from the abdominal aorta of the mice and the plasma was isolated while mixing with heparin. Activities of glutamic acid oxaloacetic acid transaminase (AST) and glutamic acid pyruvic acid transaminase (ALT) in the plasma were determined according to the methods described by Nagakawa et al. (J. Pharmacol. Exp. Ther., 264, 496-500 (1993)). From the values obtained inhibitory rates of the test compound against AST and ALT levels which had been increased by injection of Con A, were obtained based on the following equation.
Inhibitory Rate(%)={1−[(A−C)/(B−C)]}×100
A: The average level of AST or ALT in the group A
B: The average level of AST or ALT in the group B
C: The average level of AST or ALT in the group C

[4] = tested on: Mouse preadipocyte strain 3T3-L1; experiment: Inhibition of differentiation as an indication of acetic acid uptake; type: cell-based; details: Mus musculus, 3T3-L1, 0.1 μM test substance, control (0.01% dimethylsulfoxide) = 100%, read-out: Rate of Uptake (%) of [2-14C] acetic acid
In short: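 Differentiation is indexed by 1 hr [2-14C]acetic acid incorporation, measured by scintillation counting and given as uptake relative to 0.01% DMSO control (100%). Mouse 3T3-L1 preadipocytes, pre-grown 10 days, received 0.1 μM test substance throughout a 4-day insulin/IBMX/dexamethasone induction, followed by 2 days' maintenance culture.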

[5] = read-out: Preventing rate against liver injury, ALT (%)
[6] = read-out: Preventing rate against liver injury, AST (%)

Row | Structure (SMILES) | EC50 (human PPAR γ 2 [1]) [nM] | IC50 (human PPAR γ 2 [2]) [nM] | inhibition at 1 µM [3] [%] | activity at 0.1 µM (Rat white adipocytes) [%] | inhibition in vivo at 10000 µg/mL, 100 mg/kg (Balb/c mice; [5]) [%] | inhibition in vivo at 10000 µg/mL, 100 mg/kg (Balb/c mice; [6]) [%] | activity at 0.1 µM [4] [%]
1 | Cc1nc(NS(=O)(=O)c2ccc(NC(=O)c3cc([N+](=O)[O-])ccc3Cl)cc2)oc1C [Example 97, N-[4-(4,5-Dimethyloxazol-2-yl)aminosulfonyl]phenyl-(2-chloro-5-nitrophenyl)carboxamide] | 360 | 790 | 3 | – | – | – | –
2 | CS(=O)(=O)Nc1ccc(NC(=O)c2cc([N+](=O)[O-])ccc2Cl)cc1 [Example 136, N-(4-Methanesulfonylaminophenyl)-(2-chloro-5-nitrophenyl)carboxamide] | – | – | – | 129 | 13.1 | 12 | 88.9
3 | Cc1ccc(NS(=O)(=O)c2cccc(NC(=O)c3cc([N+](=O)[O-])ccc3Cl)c2)cc1 [Example 142, N-[3-(4-Tolylaminosulfonyl)phenyl]-(2-chloro-5-nitrophenyl)carboxamide] | – | – | – | 112 | 54 | 63 | 74.4
